# Reference: patent publication US20130116241A1, “NOVEL INHIBITOR COMPOUNDS OF PHOSPHODIESTERASE TYPE 10A” (AbbVie Inc., priority 2011, published 2013)
# Where a name gives a salt, the structure may show the parent alone.
# Target: human PDE10A (UniProt Q9Y233)
# Experiment: Measurement of PDE activity (recombinant enzyme, HTRF cAMP kit)
# Type: biochemical
# Conditions: Table 1, substrate 20 nM for PDE10, 60 minutes at 29 C, read-out: IC50
# Method in brief: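 HTRF detection of cAMP left after hydrolysis, expressed as percent of uninhibited control to derive IC50. Reaction: serially diluted inhibitor mixed with recombinant enzyme, started with 20 nM cAMP, 60 min at 29 °C in Tris-HCl pH 7.5 buffer containing MgCl2 and BSA.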
# Chain of human PDE10A (Q9Y233 290-1055 limits assumed): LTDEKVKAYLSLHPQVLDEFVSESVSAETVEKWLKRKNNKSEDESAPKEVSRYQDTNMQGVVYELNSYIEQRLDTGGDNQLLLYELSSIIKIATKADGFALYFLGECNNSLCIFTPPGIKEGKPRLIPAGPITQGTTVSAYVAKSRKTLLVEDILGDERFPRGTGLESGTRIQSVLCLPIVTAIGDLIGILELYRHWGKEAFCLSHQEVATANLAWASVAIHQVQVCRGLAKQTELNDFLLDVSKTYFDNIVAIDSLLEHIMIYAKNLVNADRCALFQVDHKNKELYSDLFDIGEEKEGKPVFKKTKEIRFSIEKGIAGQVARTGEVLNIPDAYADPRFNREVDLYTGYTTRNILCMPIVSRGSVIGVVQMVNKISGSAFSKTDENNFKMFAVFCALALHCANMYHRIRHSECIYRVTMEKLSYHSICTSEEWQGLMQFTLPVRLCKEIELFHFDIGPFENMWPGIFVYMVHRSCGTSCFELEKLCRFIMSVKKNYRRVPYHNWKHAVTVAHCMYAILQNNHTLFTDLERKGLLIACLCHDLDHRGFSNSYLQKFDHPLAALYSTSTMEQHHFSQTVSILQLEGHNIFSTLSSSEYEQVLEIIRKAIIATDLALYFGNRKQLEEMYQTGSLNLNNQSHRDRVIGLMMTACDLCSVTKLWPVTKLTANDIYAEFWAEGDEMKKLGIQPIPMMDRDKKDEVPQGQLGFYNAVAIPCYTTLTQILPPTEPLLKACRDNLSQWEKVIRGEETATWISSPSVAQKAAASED
row,IC50,SMILES
1,< 100 nM,"O=c1c2c(NC3COC3)cccc2cnn1CCc1cn2ccccc2n1 [compound 395, 2-[2-(imidazo[1,2-a]pyridin-2-yl)ethyl]-8-(oxetan-3-ylamino)phthalazin-1(2H)-one]"
2,< 100 nM,"O=c1c2cccc(N3CCOCC3)c2cnn1CCc1ccc2ccccc2n1 [compound 397, hydrochloride]"
3,100 to 200 nM,"O=c1c2cccc(-c3ccncc3)c2cnn1CCc1nc2ccccc2[nH]1 [compound 398, 2-[2-(1H-benzimidazol-2-yl)ethyl]-5-(pyridin-4-yl)phthalazin-1(2H)-one]"
4,< 100 nM,"O=c1c2ccccc2c(-c2cccnc2)nn1CCc1ccc2ccccc2n1 [compound 399, 4-(pyridin-3-yl)-2-[2-(quinolin-2-yl)ethyl]phthalazin-1(2H)-one]"
5,< 100 nM,"O=c1c2cccc(-c3ccncc3)c2cnn1CCc1cn2ccccc2n1 [compound 401, 2-[2-(imidazo[1,2-a]pyridin-2-yl)ethyl]-5-(pyridin-4-yl)phthalazin-1(2H)-one]"
6,< 100 nM,"O=c1c2cccc(-c3cccnc3)c2cnn1CCc1ccc2ccccc2n1 [compound 402, 5-(pyridin-3-yl)-2-[2-(quinolin-2-yl)ethyl]phthalazin-1(2H)-one]"
7,< 100 nM,CC1(CNc2cccc3cnn(CCc4cn5ccccc5n4)c(=O)c23)COC1 [compound 403]
8,< 100 nM,"O=c1c2c(-c3ccncc3)ccnc2cnn1CCc1ccc2ccccc2n1 [compound 404, 4-(pyridin-4-yl)-6-[2-(quinolin-2-yl)ethyl]pyrido[2,3-d]pyridazin-5(6H)-one]"
9,< 100 nM,"O=c1c2c(N3CCOCC3)ccnc2cnn1CCc1ccc2ccccc2n1 [compound 405, 4-(morpholin-4-yl)-6-[2-(quinolin-2-yl)ethyl]pyrido[2,3-d]pyridazin-5(6H)-one]"
10,< 100 nM,"O=c1c2c(NC3COC3)ccnc2cnn1CCc1ccc2ccccc2n1 [compound 406, 4-(oxetan-3-ylamino)-6-[2-(quinolin-2-yl)ethyl]pyrido[2,3-d]pyridazin-5(6H)-one]"
11,< 100 nM,COc1ccc2nc(/C=C/n3ccc4scc(-c5ccncc5)c4c3=O)ccc2c1 [compound 410]
12,100 to 200 nM,"O=c1c2c(-c3ccncc3)cccc2ccn1/C=C/c1ncc2ccccc2n1 [compound 411, 8-(pyridin-4-yl)-2-[(E)-2-(quinazolin-2-yl)ethenyl]isoquinolin-1(2H)-one]"
13,< 100 nM,"O=c1c2c(-c3ccncc3)csc2ccn1/C=C/c1ccc2cc(Cl)ccc2n1 [compound 412, 5-[(E)-2-(6-chloroquinolin-2-yl)ethenyl]-3-(pyridin-4-yl)thieno[3,2-c]pyridin-4(5H)-one]"
14,< 100 nM,"Cc1cc2ccccc2nc1/C=C/n1ccc2scc(-c3ccncc3)c2c1=O [compound 413, 5-[(E)-2-(3-methylquinolin-2-yl)ethenyl]-3-(pyridin-4-yl)thieno[3,2-c]pyridin-4(5H)-one]"
15,< 100 nM,"O=c1c2c(-c3ccncc3)csc2ccn1/C=C/c1nc2ccccc2s1 [compound 415, 5-[(E)-2-(1,3-benzothiazol-2-yl)ethenyl]-3-(pyridin-4-yl)thieno[3,2-c]pyridin-4(5H)-one]"
16,< 100 nM,"O=c1c2c(-c3ccncc3)csc2ccn1/C=C/c1ccc2ccccc2n1 [compound 416, 3-(pyridin-4-yl)-5-[(E)-2-(quinolin-2-yl)ethenyl]thieno[3,2-c]pyridin-4(5H)-one]"

# System: rats
# Experiment: not given
# Conditions: compound alone; cited from earlier work
row,SMILES,catalepsy on its own
1,"COc1ccc(Cc2nccc3cc(OC)c(OC)cc23)cc1OC [Papaverine, papaverine]",did not cause catalepsy on its own

# Same assay, conditions: with haloperidol; cited from earlier work
row,SMILES,cataleptic effect of the D2 receptor antagonist haloperidol
1,"COc1ccc(Cc2nccc3cc(OC)c(OC)cc23)cc1OC [Papaverine, papaverine]",potentiated the cataleptic effect

# System: rats
# Experiment: not given
# Conditions: cited from earlier work
row,SMILES,hyperactivity induced by PCP
1,"COc1ccc(Cc2nccc3cc(OC)c(OC)cc23)cc1OC [Papaverine, papaverine]",reduced hyperactivity

# System: rats
# Experiment: not given
# Conditions: rat, in vivo; cited from earlier work
row,SMILES,reduction of amphetamine-induced hyperactivity
1,"COc1ccc(Cc2nccc3cc(OC)c(OC)cc23)cc1OC [Papaverine, papaverine]",insignificant
